# BindingDB's records for doi:10.1021/cb500355c (2015)
# pKd: −log10 of the molar value.
# Molecular target: RAC-alpha serine/threonine-protein kinase [E49C,C296S,C310S,C344S] (Homo sapiens, UniProt P31749, C296S/C310S/C344S/E49C)
# Test: iFLik Assay
# Conditions: pH 7.4
# Experimental: Labeled Akt1 was diluted to 200 nM in the measurement buffer consisting of 50 mMHEPES pH 7.4, 200 mM NaCl, and 0.01% Triton-X 100. Dilution series of candidate compounds were prepared in DMSO at 21× the final desired concentration. Compounds (0.5 μL) were then mixed with labeled Akt1 (10 μL) in triplicate and with measurement buffer alone (background fluorescence control) in quadruplicate at 12different concentrations. The final compound concentrations ranged from 0.8 nM to 500 μM and each well contained 5% v/v DMSO after mixing. Plates were then covered with an adhesive plastic foil and incubated for 2 h at RT prior to measurement of emission intensities at fluorophore-specific wavelengths
# RAC-alpha serine/threonine-protein kinase [E49C,C296S,C310S,C344S], sequence (P31749 whole entry E49C/C296S/C310S/C344S): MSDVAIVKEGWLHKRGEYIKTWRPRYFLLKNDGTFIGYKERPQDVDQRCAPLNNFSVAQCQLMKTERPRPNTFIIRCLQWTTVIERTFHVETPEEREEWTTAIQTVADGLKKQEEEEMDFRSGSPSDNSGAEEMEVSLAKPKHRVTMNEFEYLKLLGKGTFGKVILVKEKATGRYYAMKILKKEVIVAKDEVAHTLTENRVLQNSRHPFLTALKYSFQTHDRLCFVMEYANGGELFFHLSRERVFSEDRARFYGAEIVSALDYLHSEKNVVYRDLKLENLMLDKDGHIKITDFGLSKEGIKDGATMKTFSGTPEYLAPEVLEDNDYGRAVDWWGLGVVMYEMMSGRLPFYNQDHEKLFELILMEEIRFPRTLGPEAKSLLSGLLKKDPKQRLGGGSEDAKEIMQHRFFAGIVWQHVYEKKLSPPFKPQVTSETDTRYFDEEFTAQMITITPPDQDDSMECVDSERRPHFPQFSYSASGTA
row,Structure (SMILES),pKd
1,"O=c1[nH]ccc2nc(-c3ccc(CN4CCc5ccccc5C4)cc3)c(-c3ccccc3)cc12 [2-(4-((3,4-Dihydroisoquinolin-2(1H)-yl)methyl)phenyl)-3-phenyl-1,6-naphthyridin-5(6H)-one (7c)]",5.22
2,"O=c1[nH]ccc2nc(-c3ccc(CN4CCC(n5c(=O)[nH]c6ccccc65)CC4)cc3)c(-c3ccccc3)cc12 [2-(4-((4-(2-Oxo-2,3-dihydro-1H-benzo[d]imidazol-1-yl)piperidin-1-yl)methyl)phenyl)-3-phenyl-1,6-naphthyridin-5(6H)-one (7a)]",6.39
3,"COc1ccc(N2CCN(Cc3ccc(-c4nc5cc[nH]c(=O)c5cc4-c4ccccc4)cc3)CC2)cc1 [2-(4-((4-(4-Methoxyphenyl)piperazin-1-yl)methyl)phenyl)-3-phenyl-1,6-naphthyridin-5(6H)-one (7e)]",5.14
4,"O=c1[nH]ccc2nc(-c3ccc(CN4CCC(n5c(=O)[nH]c6cc(Cl)ccc65)CC4)cc3)c(-c3ccccc3)cc12 [2-(4-((4-(5-Chloro-2-oxo-2,3-dihydro-1H-benzo[d]imidazol-1-yl)piperidin-1-yl)methyl)phenyl)-3-phenyl-1,6-naphthyridin-5(6H)-one (7b)]",6.82
5,"O=c1[nH]ccc2nc(-c3ccc(CN4CCN(c5ncccn5)CC4)cc3)c(-c3ccccc3)cc12 [3-Phenyl-2-(4-((4-(pyrimidin-2-yl)piperazin-1-yl)methyl)phenyl)-1,6-naphthyridin-5(6H)-one (7f)]",5.96
6,"O=C(C1CCCO1)N1CCN(Cc2ccc(-c3nc4cc[nH]c(=O)c4cc3-c3ccccc3)cc2)CC1 (centres undefined) [3-Phenyl-2-(4-((4-(tetrahydrofuran-2-carbonyl)piperazin-1-yl)methyl)phenyl)-1,6-naphthyridin-5(6H)-one (7g)]",5.10
7,"c1ccc(-c2cn(-c3ccccc3)c3ncnc(NCc4cccs4)c23)cc1 [5,7-diphenyl-N-(thiophen-2-ylmethyl)-7H-pyrrolo[2,3-d]pyrimidin-4-amine (8d)]",5.66
8,"Cc1ccc(-n2cc(-c3ccccc3)c3c(NCc4cccs4)ncnc32)cc1Cl [7-(3-chloro-4-methylphenyl)-5-phenyl-N-(thiophen-2-ylmethyl)-7H-pyrrolo[2,3-d]pyrimidin-4-amine (8g)]",3.58
9,"Cc1cccc(-n2cc(-c3ccccc3)c3c(NCc4cccs4)ncnc32)c1 [7-(3-methylphenyl)-5-phenyl-N-(thiophen-2-ylmethyl)-7H-pyrrolo[2,3-d]pyrimidin-4-amine (8e)]",4.00
10,"Fc1ccc(-n2cc(-c3ccccc3)c3c(NCc4ccccn4)ncnc32)cc1 [7-(4-fluorophenyl)-5-phenyl-N-(pyridin-2-ylmethyl)-7H-pyrrolo[2,3-d]pyrimidin-4-amine (8c)]",4.70
11,"Cc1ccc(-n2cc(-c3ccccc3)c3c(NCc4cccnc4)ncnc32)cc1 [7-(4-methylphenyl)-5-phenyl-N-(pyridin-3-ylmethyl)-7H-pyrrolo[2,3-d]pyrimidin-4-amine (8b)]",5.11
12,"Cc1ccc(-n2cc(-c3ccccc3)c3c(NCc4cccs4)ncnc32)cc1 [7-(4-methylphenyl)-5-phenyl-N-(thiophen-2-ylmethyl)-7H-pyrrolo[2,3-d]pyrimidin-4-amine (8a)]",5.66
13,"COC(=O)C1CCN(Cc2ccc(-c3nc4cc[nH]c(=O)c4cc3-c3ccccc3)cc2)CC1 [Methyl 1-(4-(5-oxo-3-phenyl-5,6-dihydro-1,6-naphthyridin-2-yl)benzyl)piperidine-4-carboxylate (7d)]",6.05
14,"Cc1ccc(-n2cc(-c3ccccc3)c3c(NCc4ccccc4)ncnc32)cc1 [N-benzyl-7-(4-methylphenyl)-5-phenyl-7H-pyrrolo[2,3-d]pyrimidin-4-amine (8f)]",5.22
